Experimental data as given in the supplement of paper PMC11451515.

System: P12-Ichikawa
Test: cell viability relative to DMSO control; higher = less cytotoxic
Conditions: 48 h
Procedure, shortened: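 Library compounds in DMSO were pin-dosed into 1536-well plates (5 μl) holding NOMO1 or SEM (500 cells/well) or P12-Ichikawa (1000 cells/well) leukemia cells, across an 11-point threefold series of 47 μM to 0.79 nM. Each cell line had been adapted for at least four passages in each medium. CellTiter-Glo One luminescence was read after 48 h at 37°C. Viability is the per-plate percentage relative to DMSO wells, with cell-free wells as background.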

[1] = HPLM + 10% dialyzed FBS, 0.000781 µM
[2] = HPLM + 10% dialyzed FBS, 0.00234 µM
[3] = HPLM + 10% dialyzed FBS, 0.00702 µM
[4] = HPLM + 10% dialyzed FBS, 0.0211 µM
[5] = HPLM + 10% dialyzed FBS, 0.0632 µM
[6] = HPLM + 10% dialyzed FBS, 0.19 µM
[7] = HPLM + 10% dialyzed FBS, 0.569 µM
[8] = HPLM + 10% dialyzed FBS, 1.71 µM
[9] = HPLM + 10% dialyzed FBS, 5.12 µM
[10] = HPLM + 10% dialyzed FBS, 15.4 µM
[11] = HPLM + 10% dialyzed FBS, 46.1 µM
[12] = RPMI 5 mM glucose + 10% dialyzed FBS, 0.000781 µM
[13] = RPMI 5 mM glucose + 10% dialyzed FBS, 0.00234 µM
[14] = RPMI 5 mM glucose + 10% dialyzed FBS, 0.00702 µM
[15] = RPMI 5 mM glucose + 10% dialyzed FBS, 0.0211 µM
[16] = RPMI 5 mM glucose + 10% dialyzed FBS, 0.0632 µM
[17] = RPMI 5 mM glucose + 10% dialyzed FBS, 0.19 µM
[18] = RPMI 5 mM glucose + 10% dialyzed FBS, 0.569 µM
[19] = RPMI 5 mM glucose + 10% dialyzed FBS, 1.71 µM
[20] = RPMI 5 mM glucose + 10% dialyzed FBS, 5.12 µM
[21] = RPMI 5 mM glucose + 10% dialyzed FBS, 15.4 µM
[22] = RPMI 5 mM glucose + 10% dialyzed FBS, 46.1 µM
[23] = RPMI 5 mM glucose + 10% FBS, 0.000781 µM
[24] = RPMI 5 mM glucose + 10% FBS, 0.00234 µM
[25] = RPMI 5 mM glucose + 10% FBS, 0.00702 µM
[26] = RPMI 5 mM glucose + 10% FBS, 0.0211 µM
[27] = RPMI 5 mM glucose + 10% FBS, 0.0632 µM
[28] = RPMI 5 mM glucose + 10% FBS, 0.19 µM
[29] = RPMI 5 mM glucose + 10% FBS, 0.569 µM
[30] = RPMI 5 mM glucose + 10% FBS, 1.71 µM
[31] = RPMI 5 mM glucose + 10% FBS, 5.12 µM
[32] = RPMI 5 mM glucose + 10% FBS, 15.4 µM
[33] = RPMI 5 mM glucose + 10% FBS, 46.1 µM

Structure (SMILES)	cell viability [1] [%]	cell viability [2] [%]	cell viability [3] [%]	cell viability [4] [%]	cell viability [5] [%]	cell viability [6] [%]	cell viability [7] [%]	cell viability [8] [%]	cell viability [9] [%]	cell viability [10] [%]	cell viability [11] [%]	cell viability [12] [%]	cell viability [13] [%]	cell viability [14] [%]	cell viability [15] [%]	cell viability [16] [%]	cell viability [17] [%]	cell viability [18] [%]	cell viability [19] [%]	cell viability [20] [%]	cell viability [21] [%]	cell viability [22] [%]	cell viability [23] [%]	cell viability [24] [%]	cell viability [25] [%]	cell viability [26] [%]	cell viability [27] [%]	cell viability [28] [%]	cell viability [29] [%]	cell viability [30] [%]	cell viability [31] [%]	cell viability [32] [%]	cell viability [33] [%]
CC(C)OC(=O)CCC/C=C\C[C@@H]1[C@@H](/C=C/[C@@H](O)COc2cccc(C(F)(F)F)c2)[C@H](O)C[C@@H]1O	109	120	122	127	115	119	118	115	112	104	65.1	112	126	120	121	127	123	124	119	110	92.7	46.1	–	–	–	–	–	–	–	–	–	–	–
C[C@@H]1C[C@H]2[C@@H]3\C=C(C)/C4=C/C5=C(C[C@]4(C)[C@H]3[C@@H](O)C[C@]2(C)[C@@]1(O)C(=O)COC(C)=O)C=N[N]5C6=CC=CC=C6	111	107	99.2	91.8	67.8	61.6	58.1	58.7	59.6	51.4	55.8	114	99.7	91.7	72.2	53.3	44.1	38	39.5	38.7	38.1	32.9	123	127	98	85.1	62.3	54.6	45.6	51.5	49.2	46.5	46.9
CN1C(=O)\C(=C/C(=C1/NC2=C(F)C=C(I)C=C2)C(=O)NOCCO)C	94.6	99.5	103	93.4	90.4	90.1	94.5	88.9	94.5	87.7	78.1	94.6	105	96.2	99.6	92.3	90.7	95.8	90.9	101	91	74.9	98.2	104	98.9	90.7	88.8	85.3	85.5	84.7	85.7	87.1	81.1
COc1cc2nccc(Oc3ccc(NC(=O)Nc4ccc(F)cc4F)c(F)c3)c2cc1OC	95.4	93.2	94.7	100	98.1	89.3	91.8	94.1	85	76.5	12.9	88	98.3	87.5	89.9	82.1	87.4	84.5	85.3	75	81.9	22.2	91.1	94.8	88.4	94.8	93.5	92.2	83.8	86	73.5	80.3	13.7
C[N]1C=NC=C1[C@@](N)(C2=CC=C(Cl)C=C2)C3=CC=C4N(C)C(=O)\C=C(\C5=CC=CC(=C5)Cl)C4=C3	111	110	113	106	109	97.4	82.4	79.2	73	50.1	27.9	105	114	115	100	107	92.2	85.5	72.8	69.6	59.9	39.3	110	113	113	106	100	81.2	82.9	69	67.7	42.1	32.3
NC(=O)c1ccc(-c2nc(-c3ccc4c(c3)OCCO4)c(-c3ccccn3)[nH]2)cc1	120	125	125	118	122	119	124	122	117	117	111	121	114	120	126	126	121	121	110	127	117	106	122	126	115	129	117	115	118	131	116	114	110
C[C@H]1CN(C[C@@H](C)O1)CC(=O)NC2=CC=C3SC4=C(CC3=C2)C=CC=C4\C5=C\C(=O)\C=C(/O5)N6CCOCC6	91.6	113	73.7	110	110	123	116	108	107	80.3	51.1	94.7	119	86.3	116	120	122	128	118	121	88.1	48.9	97.8	113	66.9	125	110	120	114	124	109	95.8	49.8
COc1nc(-c2ccc3c(c2)OCO3)n(-c2ccc(NC(=O)CSc3ccccc3)cc2)n1	109	108	111	107	108	110	112	104	104	103	108	130	107	119	107	116	104	120	108	95.9	108	85.6	107	116	113	118	118	113	113	103	102	97.2	92.5
FC(F)(F)c1ccc(Nc2nc3cc(Oc4ccnc(-c5ncc(C(F)(F)F)[nH]5)c4)ccc3[nH]2)cc1	118	111	115	120	122	115	117	123	118	112	71.3	–	–	–	–	–	–	–	–	–	–	–	119	119	127	123	130	122	127	137	130	111	67.8
O=C(Nc1ccc(OC(F)(F)F)cc1)c1sccc1NCc1ccnc2ccccc12	112	113	108	116	106	112	41.4	12.8	10.7	8.54	7.05	109	119	111	120	108	103	110	73.5	33.1	16.6	16.1	106	121	118	120	118	113	102	72.6	25.9	10.3	9.62
Cc1c[nH]c(/C=C2\C(=O)Nc3ccccc32)c1CCC(=O)O	109	107	111	108	101	111	97.2	96.5	79.2	76.5	79.8	122	118	123	127	105	106	94.7	92.4	71.7	67.3	68.7	111	108	115	122	103	118	95.2	93.1	67.2	65.8	65.7
C=C(C)[C@@H]1CC[C@]2(C)CC[C@]3(C)[C@H](CC[C@@H]4[C@@]5(C)CC[C@H](O)C(C)(C)[C@@H]5CC[C@]43C)[C@@H]12	108	115	116	113	127	134	128	125	126	126	124	104	119	102	115	130	110	128	126	124	119	126	–	–	–	–	–	–	–	–	–	–	–
CN(N=O)C(=O)N[C@H]1C(O)OC(CO)[C@@H](O)[C@@H]1O (some centres not stated)	91.5	84.9	82.8	84.2	89.2	81.9	85.8	82.8	84.2	60.5	83	70.2	81.9	83.9	74.1	79.6	76.6	80.2	81.7	71.3	71	77.5	83.3	84.2	76.3	75.8	81.3	85.2	74.2	87.6	72.8	78.5	83.7
Cc1ccc(NC(=O)C2(c3ccc4c(c3)OC(F)(F)O4)CC2)nc1-c1cccc(C(=O)O)c1	101	111	101	108	93.4	58.4	29.4	19.5	17.2	10.9	6.66	102	103	97	96.1	95.4	44.5	30.4	20.8	9.02	8.13	6.13	106	98.6	95.5	101	85.3	42.2	18.7	16.1	11.1	9.88	6.85
CCC1=C[C@@H]2CN(C1)Cc1c([nH]c3ccccc13)[C@@](C(=O)OC)(c1cc3c(cc1OC)N(C)[C@H]1[C@@](O)(C(=O)OC)[C@H](OC(C)=O)[C@]4(CC)C=CCN5CC[C@]31[C@@H]54)C2	106	110	94.4	85.4	36.2	15.4	15.9	12.6	12.8	8.96	7.62	110	100	99.7	89.4	59.2	21.7	29.3	25.4	22.4	13.9	10.6	108	108	96.6	59.8	29.6	16.2	18.3	16.5	11	9.49	7.18
